The results in this text go back to article PMC7324608 (Scientific Reports, 2020).

One assay has as its target T1, HpHtrA S164A (Helicobacter pylori, UniProt G2J5T2, S164A).
T1 sequence (G2J5T2 18-475 S164A): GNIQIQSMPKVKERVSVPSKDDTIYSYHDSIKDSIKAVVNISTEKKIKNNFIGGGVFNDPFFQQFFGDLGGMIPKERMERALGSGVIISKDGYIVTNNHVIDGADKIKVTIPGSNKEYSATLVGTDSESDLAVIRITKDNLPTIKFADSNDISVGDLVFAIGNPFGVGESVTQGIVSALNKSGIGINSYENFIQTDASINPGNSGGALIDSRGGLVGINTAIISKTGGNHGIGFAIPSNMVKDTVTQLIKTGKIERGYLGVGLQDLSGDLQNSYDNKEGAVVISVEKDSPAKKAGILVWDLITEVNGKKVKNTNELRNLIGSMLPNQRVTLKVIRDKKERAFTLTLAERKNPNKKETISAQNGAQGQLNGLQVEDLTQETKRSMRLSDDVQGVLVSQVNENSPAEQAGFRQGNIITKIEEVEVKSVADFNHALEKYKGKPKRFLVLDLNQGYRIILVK
Briefly: biochemical. Here is the method:
(§1) Synthesis of 2-Abz-AQRVAFY(3-NO2)-NH2. The peptide was assembled manually on a 20 µmol scale.
(§2) The side-chain protecting groups were Pbf for Arg, and Trt for Gln. Fmoc deprotection was carried out with 25% piperidine in DMF/NMP (80:20, v/v) for 3 min, and 12.5% piperidine in DMF/NMP (80:20, v/v) for 12 min. The double couplings (2x45 min) were accomplished with the mixture Fmoc-AA-OH/HOBt/HBTU/DIPEA (5:5:4.8:10 equiv.). 2 -Boc-Abz-OH was coupled with the same protocol.
(§3) Afterwards, the peptidyl-resin was treated with 25% piperidine in DMF/NMP (80:20, v/v) (2x12 min) to deacylate the 3-nitro-tyrosine side chain. The peptide was simultaneously cleaved from the resin and deprotected by using the mixture TFA/H2O/TIA/EDT/TIS (90:3:1:3:3; Vtot = 1 ml) for about 3 h, precipitated from ice-cold diethyl ether, recovered by centrifugation at 4 °C for 6 min, washed four times with ice-cold diethyl ether, and dried in vacuo. The solid was dissolved in water and lyophilized.
(§4) Microscale thermophoresis .
(§5) D168A, MicroScale Thermophoresis (MST) analysis was performed using the Monolith NT.115 (NanoTemper Technologies). HpHtrA proteases were labeled with red fluorescent dye NT -650-NHS (amine reactive) according to the manufacturer’s protocol. Remaining free dye was removed by buffer exchange column chromatography and proteins were eluted in 50 mM Tris pH 7.4, 150 mM NaCl, 0.04% Tween. 5 nM of labelled HpHtrA was incubated for 15 minutes at RT with decreasing […]
(§6) Measurement was performed with premium treated capillaries (NanoTemper Technologies) and the Monolith NT.115 Microscale Thermophoresis device. Data analysis was performed with MO.Affinity Analysis v2.3 (NanoTemper Technologies) and GraphPad Prism Software (Version 8.0.2). Three independent experiments were […]

The target of another assay is T2, HpHtrA wt (Helicobacter pylori, UniProt G2J5T2).
T2 sequence (G2J5T2 18-475): T1 sequence (G2J5T2 18-475 S164A) with A147S
Briefly: biochemical. As for the experimental part: as §1, §2, §3, §4, §5, §6

In another assay the target is T3, HpHtrA D165A (Helicobacter pylori, UniProt G2J5T2, D165A).
T3 sequence (G2J5T2 18-475 D165A): T1 sequence (G2J5T2 18-475 S164A) with A147S, D148A
Conditions: MST. Here is the method: as §1, §2, §3, §4, §5, §6

Substitutions are numbered along the chain they refer to.

Take `[Zn+2]` [Zn^++, ZnCl2]: the Kd at HpHtrA S164A stood at 55 ± 34 µM; on HpHtrA wt, 23 ± 12 µM. Further, the Response amplitude at HpHtrA S164A (MST, 5 nM labelled HpHtrA S164A) came out at 3.6; at HpHtrA wt (MST, 5 nM labelled HpHtrA wt, ZnCl2 1 mM - 30.5 nM), 4.3; on HpHtrA D165A it was 3.6. Moreover, the “S/N (signal to noise ratio)” value at HpHtrA S164A (MST, HpHtrA S164A) is 6.0; at HpHtrA wt (MST, HpHtrA wt) it was 6.3.

For orientation: Kd means the constant that tells how readily two partners part at equilibrium. A lower Kd goes with tighter binding.
